What was measured:
[1] = molecular target: JAK2 (Homo sapiens (Human), UniProt O60674); experiment: Biochemical JAK2 kinase assay (LanthaScreen)
Outline: (§1)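 GST-JAK + GFP-STAT1 peptide, HEPES pH 7.5/MgCl2/EGTA/Brij-35 buffer; cpd preincubation 1 h RT; ATP start, 1 h RT; stop with 10 mM EDTA + 2 nM Tb-anti-pSTAT1; TR-FRET 520/495. 4-parameter IC50 → pKi (Cheng-Prusoff).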

[2] = molecular target: JAK3 (Homo sapiens (Human), UniProt P52333); experiment: Biochemical JAK3 kinase assay (LanthaScreen); details: for JAK3 (pKi)-JAK1 (pKi): selectivity JAK3 over JAK1, difference of pKi
Outline: as §1

[3] = test system: IL-2 stimulated STAT5 phosphorylation in Tall-1 human T cell line (JAK3); experiment: Cellular JAK3 potency assay: inhibition of IL-2 stimulated pSTAT5 in Tall-1 T cells; format: cell-based; details: IL-2 stimulated pSTAT5, Tall-1 T cells
Outline: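 Tall-1 cells, 45,000 per well, preincubated 1 hour with compound at 37 °C, then stimulated 30 minutes with IL-2 at 300 ng/ml final. pSTAT5 (Tyr694/699) in lysates quantified by AlphaLISA SureFire Ultra. pIC50 derived from inhibition curves, given as mean with SD.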

[4] = molecular target: JAK1 (Homo sapiens (Human), UniProt P23458); experiment: Biochemical JAK1 kinase assay (LanthaScreen)
Outline: as §1

[5] = molecular target: Tyk2 (Homo sapiens (Human), UniProt P29597); experiment: Biochemical Tyk2 kinase assay (LanthaScreen)
Outline: as §1

Tyk2, sequence (P29597 whole entry): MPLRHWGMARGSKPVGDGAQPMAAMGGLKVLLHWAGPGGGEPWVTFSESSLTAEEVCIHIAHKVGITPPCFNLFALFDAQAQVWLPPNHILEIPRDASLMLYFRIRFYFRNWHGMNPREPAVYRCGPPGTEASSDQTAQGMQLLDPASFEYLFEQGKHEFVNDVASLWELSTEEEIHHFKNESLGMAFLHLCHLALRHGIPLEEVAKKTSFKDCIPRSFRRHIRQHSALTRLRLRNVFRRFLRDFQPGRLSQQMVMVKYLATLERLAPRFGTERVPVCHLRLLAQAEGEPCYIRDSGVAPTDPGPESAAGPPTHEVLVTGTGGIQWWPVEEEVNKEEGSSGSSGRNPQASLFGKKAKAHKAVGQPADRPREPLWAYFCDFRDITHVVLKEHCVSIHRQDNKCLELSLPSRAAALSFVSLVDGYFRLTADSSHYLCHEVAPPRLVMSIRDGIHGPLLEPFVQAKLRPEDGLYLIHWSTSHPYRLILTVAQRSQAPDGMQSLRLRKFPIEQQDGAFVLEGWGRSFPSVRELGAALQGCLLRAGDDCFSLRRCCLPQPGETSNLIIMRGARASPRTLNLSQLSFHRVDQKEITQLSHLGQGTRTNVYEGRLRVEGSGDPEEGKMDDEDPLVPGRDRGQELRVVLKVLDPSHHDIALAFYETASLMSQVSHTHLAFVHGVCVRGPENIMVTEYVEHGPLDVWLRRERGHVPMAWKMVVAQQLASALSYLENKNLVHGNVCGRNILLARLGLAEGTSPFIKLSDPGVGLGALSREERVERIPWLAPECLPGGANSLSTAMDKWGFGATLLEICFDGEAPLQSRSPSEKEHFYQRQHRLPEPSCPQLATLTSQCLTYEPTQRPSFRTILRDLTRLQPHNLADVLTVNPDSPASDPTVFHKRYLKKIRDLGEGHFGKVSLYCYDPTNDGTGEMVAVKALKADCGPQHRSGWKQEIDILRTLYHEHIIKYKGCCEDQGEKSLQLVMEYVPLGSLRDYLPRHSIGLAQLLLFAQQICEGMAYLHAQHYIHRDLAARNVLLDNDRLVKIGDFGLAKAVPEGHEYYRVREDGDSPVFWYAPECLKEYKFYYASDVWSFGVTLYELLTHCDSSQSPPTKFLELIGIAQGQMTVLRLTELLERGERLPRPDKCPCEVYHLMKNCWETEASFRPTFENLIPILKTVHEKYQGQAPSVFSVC
JAK3, sequence (P52333 whole entry): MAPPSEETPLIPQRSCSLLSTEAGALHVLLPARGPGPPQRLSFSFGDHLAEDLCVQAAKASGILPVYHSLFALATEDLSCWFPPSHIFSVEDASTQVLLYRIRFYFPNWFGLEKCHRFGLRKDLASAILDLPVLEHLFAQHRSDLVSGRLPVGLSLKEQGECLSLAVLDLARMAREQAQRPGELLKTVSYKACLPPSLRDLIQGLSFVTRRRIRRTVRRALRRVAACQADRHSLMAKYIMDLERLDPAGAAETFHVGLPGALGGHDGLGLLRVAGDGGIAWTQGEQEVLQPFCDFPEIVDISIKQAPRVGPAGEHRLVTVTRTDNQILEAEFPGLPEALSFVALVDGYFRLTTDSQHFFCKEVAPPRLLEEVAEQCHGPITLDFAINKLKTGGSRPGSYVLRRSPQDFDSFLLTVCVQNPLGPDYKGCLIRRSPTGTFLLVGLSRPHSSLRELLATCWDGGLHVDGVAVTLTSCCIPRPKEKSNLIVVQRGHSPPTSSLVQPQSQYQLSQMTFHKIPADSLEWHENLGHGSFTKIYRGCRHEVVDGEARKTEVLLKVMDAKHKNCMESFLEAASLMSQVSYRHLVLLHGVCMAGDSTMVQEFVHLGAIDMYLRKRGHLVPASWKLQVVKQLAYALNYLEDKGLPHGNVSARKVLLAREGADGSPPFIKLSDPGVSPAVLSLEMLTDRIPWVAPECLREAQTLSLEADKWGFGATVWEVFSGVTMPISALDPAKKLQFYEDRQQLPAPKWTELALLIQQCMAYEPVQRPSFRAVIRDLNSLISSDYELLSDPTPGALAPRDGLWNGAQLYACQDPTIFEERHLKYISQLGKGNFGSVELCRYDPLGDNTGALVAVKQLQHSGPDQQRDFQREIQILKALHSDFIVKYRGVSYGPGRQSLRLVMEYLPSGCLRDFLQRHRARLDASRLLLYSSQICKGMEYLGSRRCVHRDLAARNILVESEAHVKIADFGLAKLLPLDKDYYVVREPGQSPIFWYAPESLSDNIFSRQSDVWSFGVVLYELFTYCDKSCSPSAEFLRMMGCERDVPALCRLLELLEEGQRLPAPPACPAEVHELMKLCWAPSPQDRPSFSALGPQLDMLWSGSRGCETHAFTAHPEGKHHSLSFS
JAK2, sequence (O60674 whole entry): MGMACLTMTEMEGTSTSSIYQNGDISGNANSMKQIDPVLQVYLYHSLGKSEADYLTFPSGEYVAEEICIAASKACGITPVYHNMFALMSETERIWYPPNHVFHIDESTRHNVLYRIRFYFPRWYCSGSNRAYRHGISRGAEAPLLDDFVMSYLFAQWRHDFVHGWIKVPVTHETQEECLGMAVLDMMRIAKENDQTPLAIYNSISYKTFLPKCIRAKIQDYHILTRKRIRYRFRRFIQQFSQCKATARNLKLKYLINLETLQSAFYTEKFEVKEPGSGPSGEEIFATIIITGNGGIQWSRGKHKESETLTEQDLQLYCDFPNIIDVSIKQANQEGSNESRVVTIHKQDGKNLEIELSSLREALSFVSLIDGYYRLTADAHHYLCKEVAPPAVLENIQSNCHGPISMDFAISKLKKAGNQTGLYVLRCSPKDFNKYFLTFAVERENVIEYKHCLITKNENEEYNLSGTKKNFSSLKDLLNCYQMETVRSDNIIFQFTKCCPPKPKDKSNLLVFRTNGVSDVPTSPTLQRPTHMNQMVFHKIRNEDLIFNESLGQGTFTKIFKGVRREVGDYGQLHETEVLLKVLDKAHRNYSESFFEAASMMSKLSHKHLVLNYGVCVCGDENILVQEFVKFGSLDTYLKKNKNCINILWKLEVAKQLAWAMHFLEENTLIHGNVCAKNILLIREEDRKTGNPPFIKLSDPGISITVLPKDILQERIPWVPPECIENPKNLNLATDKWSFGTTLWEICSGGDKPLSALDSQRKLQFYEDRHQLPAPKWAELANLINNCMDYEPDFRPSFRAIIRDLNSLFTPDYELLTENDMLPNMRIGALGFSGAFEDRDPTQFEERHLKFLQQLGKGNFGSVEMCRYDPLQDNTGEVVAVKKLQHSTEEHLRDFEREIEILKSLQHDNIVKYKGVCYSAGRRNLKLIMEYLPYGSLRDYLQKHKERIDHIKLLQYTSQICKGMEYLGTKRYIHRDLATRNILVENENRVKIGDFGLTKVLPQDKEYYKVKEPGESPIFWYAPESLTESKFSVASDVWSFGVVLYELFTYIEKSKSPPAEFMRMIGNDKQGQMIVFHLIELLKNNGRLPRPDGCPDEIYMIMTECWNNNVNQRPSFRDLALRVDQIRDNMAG
JAK1, sequence (P23458 whole entry): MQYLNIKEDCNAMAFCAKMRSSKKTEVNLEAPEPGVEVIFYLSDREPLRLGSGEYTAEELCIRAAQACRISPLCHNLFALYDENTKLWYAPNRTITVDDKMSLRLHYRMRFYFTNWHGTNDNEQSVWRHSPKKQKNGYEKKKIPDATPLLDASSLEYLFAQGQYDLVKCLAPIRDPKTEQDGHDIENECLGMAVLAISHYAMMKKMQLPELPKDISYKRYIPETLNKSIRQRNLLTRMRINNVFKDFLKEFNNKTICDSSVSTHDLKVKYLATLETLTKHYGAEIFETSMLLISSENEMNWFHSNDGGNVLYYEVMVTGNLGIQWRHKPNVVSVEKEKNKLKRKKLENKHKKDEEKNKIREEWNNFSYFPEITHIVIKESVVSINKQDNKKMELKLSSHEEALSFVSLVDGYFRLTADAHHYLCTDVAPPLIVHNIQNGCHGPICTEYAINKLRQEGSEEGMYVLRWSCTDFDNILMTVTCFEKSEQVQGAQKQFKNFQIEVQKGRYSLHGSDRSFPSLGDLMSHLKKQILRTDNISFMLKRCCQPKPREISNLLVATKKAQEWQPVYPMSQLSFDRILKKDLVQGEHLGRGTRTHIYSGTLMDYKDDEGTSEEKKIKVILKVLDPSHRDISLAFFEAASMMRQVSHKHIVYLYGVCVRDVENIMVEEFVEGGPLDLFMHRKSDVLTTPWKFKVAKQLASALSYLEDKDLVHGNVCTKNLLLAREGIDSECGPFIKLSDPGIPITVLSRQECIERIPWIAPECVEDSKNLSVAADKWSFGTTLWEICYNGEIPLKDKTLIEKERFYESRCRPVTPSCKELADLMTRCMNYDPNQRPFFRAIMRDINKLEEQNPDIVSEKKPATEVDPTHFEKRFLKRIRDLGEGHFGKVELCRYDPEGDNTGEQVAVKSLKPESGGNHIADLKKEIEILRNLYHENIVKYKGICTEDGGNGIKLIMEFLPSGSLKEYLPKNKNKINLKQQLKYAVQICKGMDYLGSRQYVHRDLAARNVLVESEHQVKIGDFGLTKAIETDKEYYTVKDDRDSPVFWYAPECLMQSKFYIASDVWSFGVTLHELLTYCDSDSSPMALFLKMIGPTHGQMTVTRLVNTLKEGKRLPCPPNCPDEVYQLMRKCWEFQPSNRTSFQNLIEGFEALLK

Row | Structure (SMILES) | JAK 2 (pKi) [1] | JAK 3 (pKi) [2] | JAK3 (pKi)-JAK1 (pKi) [2] | Tall-1 (pIC50) [3] | JAK 1 (pKi) [4] | Tyk 2 (pKi) [5]
1 | C=CC(=O)N1CC(CCn2c(=O)ccc3cnc(Nc4cccc(CN5CCN(S(=O)(=O)CCOC)CC5)c4)nc32)C1 [Example 132] | E (E represents a pKi value of 7 or below (Ki of 100 nM or above)) | A (A represents a pKi value≥10 (Ki≤0.1 nM)) | A (A represents a value of 3 or above) | B (B represents a pC50 value between 6.7 (included) and 7.5 (IC50 between 200 nM and 32 nM)) | E (E represents a pKi value of 7 or below (Ki of 100 nM or above)) | E (E represents a pKi value of 7 or below (Ki of 100 nM or above))
2 | C=CC(=O)N1CCN(CCn2c(=O)ccc3cnc(Nc4ccc(N5CCN(C(=O)COC)CC5)cc4)nc32)CC1 [Example 144] | E (E represents a pKi value of 7 or below (Ki of 100 nM or above)) | A (A represents a pKi value≥10 (Ki≤0.1 nM)) | A (A represents a value of 3 or above) | B (B represents a pC50 value between 6.7 (included) and 7.5 (IC50 between 200 nM and 32 nM)) | E (E represents a pKi value of 7 or below (Ki of 100 nM or above)) | E (E represents a pKi value of 7 or below (Ki of 100 nM or above))
3 | C=CC(=O)N1CCN(CCn2c(=O)ccc3cnc(Nc4ccc(N5CCN(C(=O)N(C)C)CC5)cc4)nc32)CC1 [Example 146] | E (E represents a pKi value of 7 or below (Ki of 100 nM or above)) | B (B represents pKi value between 9 and 10 (Ki between 1 nM and 0.1 nM)) | A (A represents a value of 3 or above) | B (B represents a pC50 value between 6.7 (included) and 7.5 (IC50 between 200 nM and 32 nM)) | E (E represents a pKi value of 7 or below (Ki of 100 nM or above)) | E (E represents a pKi value of 7 or below (Ki of 100 nM or above))
4 | C=CC(=O)N1CCN(CCn2c(=O)ccc3cnc(Nc4ccc(N5CCN(S(=O)(=O)CCOC)CC5)cc4)nc32)CC1 [Example 147] | E (E represents a pKi value of 7 or below (Ki of 100 nM or above)) | B (B represents pKi value between 9 and 10 (Ki between 1 nM and 0.1 nM)) | A (A represents a value of 3 or above) | C (C represents a pIC50 value between 6 and 6.7 (IC50 between 1 μM and 200 nM)) | E (E represents a pKi value of 7 or below (Ki of 100 nM or above)) | E (E represents a pKi value of 7 or below (Ki of 100 nM or above))
5 | C=CC(=O)N1CCN(CCn2c(=O)ccc3cnc(Nc4ccc(N5CCN(S(=O)(=O)C6COC6)CC5)cc4)nc32)CC1 [Example 148] | E (E represents a pKi value of 7 or below (Ki of 100 nM or above)) | B (B represents pKi value between 9 and 10 (Ki between 1 nM and 0.1 nM)) | A (A represents a value of 3 or above) | C (C represents a pIC50 value between 6 and 6.7 (IC50 between 1 μM and 200 nM)) | E (E represents a pKi value of 7 or below (Ki of 100 nM or above)) | E (E represents a pKi value of 7 or below (Ki of 100 nM or above))
6 | C=CC(=O)N1CCN(CCn2c(=O)ccc3cnc(Nc4cnn(C)c4)nc32)C2(CC2)C1 [Example 149] | E (E represents a pKi value of 7 or below (Ki of 100 nM or above)) | B (B represents pKi value between 9 and 10 (Ki between 1 nM and 0.1 nM)) | A (A represents a value of 3 or above) | C (C represents a pIC50 value between 6 and 6.7 (IC50 between 1 μM and 200 nM)) | E (E represents a pKi value of 7 or below (Ki of 100 nM or above)) | E (E represents a pKi value of 7 or below (Ki of 100 nM or above))
7 | C=CC(=O)N1CCN(CCn2c(=O)ccc3cnc(Nc4ccc(N5CCN(C(C)=O)CC5)c(F)c4)nc32)CC1 [Example 152] | E (E represents a pKi value of 7 or below (Ki of 100 nM or above)) | B (B represents pKi value between 9 and 10 (Ki between 1 nM and 0.1 nM)) | A (A represents a value of 3 or above) | C (C represents a pIC50 value between 6 and 6.7 (IC50 between 1 μM and 200 nM)) | E (E represents a pKi value of 7 or below (Ki of 100 nM or above)) | E (E represents a pKi value of 7 or below (Ki of 100 nM or above))
8 | C=CC(=O)N1CCN(CCn2c(=O)ccc3cnc(Nc4ccc(N5CCN(C(C)=O)CC5)c(Cl)c4)nc32)CC1 [Example 153] | E (E represents a pKi value of 7 or below (Ki of 100 nM or above)) | B (B represents pKi value between 9 and 10 (Ki between 1 nM and 0.1 nM)) | A (A represents a value of 3 or above) | C (C represents a pIC50 value between 6 and 6.7 (IC50 between 1 μM and 200 nM)) | E (E represents a pKi value of 7 or below (Ki of 100 nM or above)) | E (E represents a pKi value of 7 or below (Ki of 100 nM or above))
9 | C=CC(=O)N1CCN(CCn2c(=O)ccc3cnc(Nc4ccc(N5CCN(C)CC5)c(Cl)c4)nc32)CC1 [Example 154] | E (E represents a pKi value of 7 or below (Ki of 100 nM or above)) | B (B represents pKi value between 9 and 10 (Ki between 1 nM and 0.1 nM)) | A (A represents a value of 3 or above) | B (B represents a pC50 value between 6.7 (included) and 7.5 (IC50 between 200 nM and 32 nM)) | E (E represents a pKi value of 7 or below (Ki of 100 nM or above)) | E (E represents a pKi value of 7 or below (Ki of 100 nM or above))
10 | C=CC(=O)N1CCN(CCn2c(=O)ccc3cnc(Nc4cnn(C)c4)nc32)[C@@H](CCC)C1 [Example 158] | E (E represents a pKi value of 7 or below (Ki of 100 nM or above)) | B (B represents pKi value between 9 and 10 (Ki between 1 nM and 0.1 nM)) | A (A represents a value of 3 or above) | C (C represents a pIC50 value between 6 and 6.7 (IC50 between 1 μM and 200 nM)) | E (E represents a pKi value of 7 or below (Ki of 100 nM or above)) | E (E represents a pKi value of 7 or below (Ki of 100 nM or above))
11 | C=CC(=O)N1CCN(CCn2c(=O)ccc3cnc(Nc4ccc(N5CCN(C)CC5)cc4)nc32)[C@@H](C)C1 [Example 160] | E (E represents a pKi value of 7 or below (Ki of 100 nM or above)) | B (B represents pKi value between 9 and 10 (Ki between 1 nM and 0.1 nM)) | A (A represents a value of 3 or above) | A (A represents a pIC50 value≥7.5 (IC50≤32 nM)) | E (E represents a pKi value of 7 or below (Ki of 100 nM or above)) | E (E represents a pKi value of 7 or below (Ki of 100 nM or above))
12 | C=CC(=O)N1CC(C)(CCn2c(=O)ccc3cnc(Nc4ccc(N5CCN(C(C)=O)CC5)cc4)nc32)C1 [Example 161] | E (E represents a pKi value of 7 or below (Ki of 100 nM or above)) | B (B represents pKi value between 9 and 10 (Ki between 1 nM and 0.1 nM)) | A (A represents a value of 3 or above) | A (A represents a pIC50 value≥7.5 (IC50≤32 nM)) | E (E represents a pKi value of 7 or below (Ki of 100 nM or above)) | E (E represents a pKi value of 7 or below (Ki of 100 nM or above))
13 | C=CC(=O)N1CC(CCn2c(=O)ccc3cnc(Nc4ccc(N5CCN(C)C[C@@H]5C)cc4)nc32)C1 [Example 163] | E (E represents a pKi value of 7 or below (Ki of 100 nM or above)) | B (B represents pKi value between 9 and 10 (Ki between 1 nM and 0.1 nM)) | A (A represents a value of 3 or above) | A (A represents a pIC50 value≥7.5 (IC50≤32 nM)) | E (E represents a pKi value of 7 or below (Ki of 100 nM or above)) | E (E represents a pKi value of 7 or below (Ki of 100 nM or above))
14 | C=CC(=O)N1CCN(C(C)(C)Cn2c(=O)ccc3cnc(Nc4ccc(N5CCN(C)CC5)cc4)nc32)CC1 [Example 164] | E (E represents a pKi value of 7 or below (Ki of 100 nM or above)) | B (B represents pKi value between 9 and 10 (Ki between 1 nM and 0.1 nM)) | A (A represents a value of 3 or above) | C (C represents a pIC50 value between 6 and 6.7 (IC50 between 1 μM and 200 nM)) | E (E represents a pKi value of 7 or below (Ki of 100 nM or above)) | E (E represents a pKi value of 7 or below (Ki of 100 nM or above))
15 | C=CC(=O)N1CC(CCn2c(=O)ccc3cnc(Nc4ccc(N5CCN(C)[C@@H](C)C5)cc4)nc32)C1 [Example 165] | E (E represents a pKi value of 7 or below (Ki of 100 nM or above)) | A (A represents a pKi value≥10 (Ki≤0.1 nM)) | A (A represents a value of 3 or above) | A (A represents a pIC50 value≥7.5 (IC50≤32 nM)) | E (E represents a pKi value of 7 or below (Ki of 100 nM or above)) | E (E represents a pKi value of 7 or below (Ki of 100 nM or above))
